What is called inhibition is the drop in the measured response relative to a control, in per cent.

Common to all, as to assay: Eurofins kinase panel
What all share (type): biochemical
Conditions in all cases: read-out: Inhibition rate (%)

One assay concerns the target T1, Met(Y1248D)(h) (Homo sapiens, UniProt P08581, Y1230D).
T1 construct: purchased Eurofins (KinaseProfiler)

A further assay deals with T2, PAK4(h) (Homo sapiens, UniProt O96013).
T2 construct: purchased Eurofins (KinaseProfiler)
T2 sequence (O96013 whole entry): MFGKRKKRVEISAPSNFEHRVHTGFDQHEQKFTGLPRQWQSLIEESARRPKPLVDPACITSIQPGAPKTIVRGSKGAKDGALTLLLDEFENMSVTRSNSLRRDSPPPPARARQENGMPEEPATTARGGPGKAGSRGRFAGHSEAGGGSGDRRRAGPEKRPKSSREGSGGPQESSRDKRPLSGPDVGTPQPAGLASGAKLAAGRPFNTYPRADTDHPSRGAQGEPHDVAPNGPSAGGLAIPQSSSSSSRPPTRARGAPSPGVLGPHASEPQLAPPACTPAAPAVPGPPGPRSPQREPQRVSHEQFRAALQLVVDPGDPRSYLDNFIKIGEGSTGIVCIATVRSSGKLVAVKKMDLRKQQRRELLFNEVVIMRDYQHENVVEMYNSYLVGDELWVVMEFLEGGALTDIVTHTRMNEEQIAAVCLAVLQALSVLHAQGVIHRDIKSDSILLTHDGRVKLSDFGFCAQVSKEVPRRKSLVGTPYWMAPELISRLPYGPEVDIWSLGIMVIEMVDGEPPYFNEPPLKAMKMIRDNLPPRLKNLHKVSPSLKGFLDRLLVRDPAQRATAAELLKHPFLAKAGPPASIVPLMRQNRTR

In a further assay the target is T3, CDK1/cyclinB(h) (Homo sapiens, UniProt P06493).
T3 construct: purchased Eurofins (KinaseProfiler)
T3 sequence (P06493 whole entry): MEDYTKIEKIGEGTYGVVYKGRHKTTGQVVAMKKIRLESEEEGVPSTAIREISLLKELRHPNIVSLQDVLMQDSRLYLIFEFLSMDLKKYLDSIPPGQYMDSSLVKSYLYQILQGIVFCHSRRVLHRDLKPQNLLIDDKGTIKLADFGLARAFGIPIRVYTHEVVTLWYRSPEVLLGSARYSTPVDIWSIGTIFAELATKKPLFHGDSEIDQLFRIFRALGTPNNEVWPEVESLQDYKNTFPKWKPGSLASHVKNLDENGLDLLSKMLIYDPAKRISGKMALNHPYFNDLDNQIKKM
T3 sequence (P14635 whole entry partner): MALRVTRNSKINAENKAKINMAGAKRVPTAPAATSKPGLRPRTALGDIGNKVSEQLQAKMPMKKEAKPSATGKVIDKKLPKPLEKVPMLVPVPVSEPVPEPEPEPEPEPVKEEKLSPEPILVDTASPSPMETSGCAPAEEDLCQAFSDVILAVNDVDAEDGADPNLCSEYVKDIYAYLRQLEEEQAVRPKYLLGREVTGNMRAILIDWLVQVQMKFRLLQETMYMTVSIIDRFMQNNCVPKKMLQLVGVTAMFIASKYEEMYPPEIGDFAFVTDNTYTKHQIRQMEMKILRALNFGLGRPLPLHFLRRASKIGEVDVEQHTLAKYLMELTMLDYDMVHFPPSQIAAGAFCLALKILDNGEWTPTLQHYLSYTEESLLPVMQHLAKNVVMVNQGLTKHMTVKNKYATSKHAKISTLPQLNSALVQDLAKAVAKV

The target of a further assay is T4, Flt3(h) (Homo sapiens, UniProt P36888).
T4 construct: purchased Eurofins (KinaseProfiler)
T4 sequence (P36888 27-993): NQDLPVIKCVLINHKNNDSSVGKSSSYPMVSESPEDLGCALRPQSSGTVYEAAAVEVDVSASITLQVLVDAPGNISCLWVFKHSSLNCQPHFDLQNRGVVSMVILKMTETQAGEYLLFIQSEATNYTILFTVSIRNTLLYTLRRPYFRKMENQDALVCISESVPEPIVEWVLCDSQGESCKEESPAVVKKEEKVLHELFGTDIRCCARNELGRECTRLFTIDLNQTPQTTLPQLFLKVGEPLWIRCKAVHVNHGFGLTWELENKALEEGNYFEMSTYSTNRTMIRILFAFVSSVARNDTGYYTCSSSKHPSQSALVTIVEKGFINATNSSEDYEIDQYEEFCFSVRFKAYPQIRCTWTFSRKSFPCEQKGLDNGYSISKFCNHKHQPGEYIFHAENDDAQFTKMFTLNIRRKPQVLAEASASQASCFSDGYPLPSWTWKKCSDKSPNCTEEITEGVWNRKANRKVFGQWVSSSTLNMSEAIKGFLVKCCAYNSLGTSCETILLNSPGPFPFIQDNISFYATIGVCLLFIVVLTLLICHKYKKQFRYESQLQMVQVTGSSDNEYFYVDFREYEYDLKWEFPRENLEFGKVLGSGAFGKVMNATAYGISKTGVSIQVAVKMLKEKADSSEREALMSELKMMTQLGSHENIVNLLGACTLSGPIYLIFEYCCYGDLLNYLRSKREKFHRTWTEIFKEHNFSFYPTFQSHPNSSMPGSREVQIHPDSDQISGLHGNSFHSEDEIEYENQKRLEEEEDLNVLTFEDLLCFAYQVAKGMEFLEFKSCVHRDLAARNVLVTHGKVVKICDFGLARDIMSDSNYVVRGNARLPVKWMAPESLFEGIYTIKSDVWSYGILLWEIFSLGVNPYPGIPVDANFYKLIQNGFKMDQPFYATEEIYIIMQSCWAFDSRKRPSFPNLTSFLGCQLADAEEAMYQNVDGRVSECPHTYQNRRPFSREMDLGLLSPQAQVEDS

The next assay concerns the target T5, BMPR2(h) (Homo sapiens, UniProt Q13873).
T5 construct: purchased Eurofins (KinaseProfiler)
T5 sequence (Q13873 27-1038): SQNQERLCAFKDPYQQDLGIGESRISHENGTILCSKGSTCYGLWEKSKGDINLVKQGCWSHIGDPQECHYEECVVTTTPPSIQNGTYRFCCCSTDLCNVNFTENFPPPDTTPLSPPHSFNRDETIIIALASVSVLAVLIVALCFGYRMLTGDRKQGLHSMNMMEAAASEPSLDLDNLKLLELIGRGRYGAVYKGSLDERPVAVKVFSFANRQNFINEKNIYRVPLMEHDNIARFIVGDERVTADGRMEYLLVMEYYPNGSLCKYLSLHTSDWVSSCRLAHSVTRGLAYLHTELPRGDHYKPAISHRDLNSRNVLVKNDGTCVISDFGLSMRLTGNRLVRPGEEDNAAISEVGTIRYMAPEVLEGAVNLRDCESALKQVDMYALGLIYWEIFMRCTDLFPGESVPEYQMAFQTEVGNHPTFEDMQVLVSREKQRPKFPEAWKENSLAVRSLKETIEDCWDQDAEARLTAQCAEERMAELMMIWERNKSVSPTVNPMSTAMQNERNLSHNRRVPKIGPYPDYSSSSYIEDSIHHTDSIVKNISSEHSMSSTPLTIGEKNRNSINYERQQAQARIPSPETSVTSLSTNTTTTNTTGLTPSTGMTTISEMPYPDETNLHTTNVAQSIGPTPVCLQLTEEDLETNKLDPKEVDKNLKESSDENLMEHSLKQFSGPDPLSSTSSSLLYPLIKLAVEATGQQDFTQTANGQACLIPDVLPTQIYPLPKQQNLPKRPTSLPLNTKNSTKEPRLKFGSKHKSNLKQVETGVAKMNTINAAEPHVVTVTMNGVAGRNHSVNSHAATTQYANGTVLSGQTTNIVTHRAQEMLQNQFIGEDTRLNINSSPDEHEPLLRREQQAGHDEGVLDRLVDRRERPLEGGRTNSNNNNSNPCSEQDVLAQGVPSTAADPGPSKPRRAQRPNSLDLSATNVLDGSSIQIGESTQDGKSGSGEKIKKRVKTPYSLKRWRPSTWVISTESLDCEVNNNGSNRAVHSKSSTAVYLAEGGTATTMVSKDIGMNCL

Another assay concerns the target T6, PDGFRα(D842V)(h) (Homo sapiens, UniProt P16234, D842V).
T6 construct: purchased Eurofins (KinaseProfiler)

A further assay deals with T7, MSSK1(h) (Homo sapiens, UniProt Q9UPE1).
T7 construct: purchased Eurofins (KinaseProfiler)
T7 sequence (Q9UPE1 whole entry): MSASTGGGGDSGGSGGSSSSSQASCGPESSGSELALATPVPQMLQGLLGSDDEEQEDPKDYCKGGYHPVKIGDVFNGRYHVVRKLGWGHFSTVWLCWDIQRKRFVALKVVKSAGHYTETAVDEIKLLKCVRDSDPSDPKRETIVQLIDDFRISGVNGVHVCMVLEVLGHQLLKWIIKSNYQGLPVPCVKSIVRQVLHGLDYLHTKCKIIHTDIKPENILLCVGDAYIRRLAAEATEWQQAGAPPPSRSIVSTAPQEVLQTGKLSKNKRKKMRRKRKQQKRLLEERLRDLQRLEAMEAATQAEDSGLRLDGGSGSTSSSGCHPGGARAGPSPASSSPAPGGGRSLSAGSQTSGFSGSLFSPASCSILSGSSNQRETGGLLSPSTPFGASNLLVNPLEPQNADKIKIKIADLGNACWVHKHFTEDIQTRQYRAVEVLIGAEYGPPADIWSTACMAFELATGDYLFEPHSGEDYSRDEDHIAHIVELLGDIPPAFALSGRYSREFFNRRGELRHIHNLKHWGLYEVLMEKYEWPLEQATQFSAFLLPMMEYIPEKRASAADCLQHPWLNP

T1 sequence (P08581 956-1390 Y1230D limits assumed): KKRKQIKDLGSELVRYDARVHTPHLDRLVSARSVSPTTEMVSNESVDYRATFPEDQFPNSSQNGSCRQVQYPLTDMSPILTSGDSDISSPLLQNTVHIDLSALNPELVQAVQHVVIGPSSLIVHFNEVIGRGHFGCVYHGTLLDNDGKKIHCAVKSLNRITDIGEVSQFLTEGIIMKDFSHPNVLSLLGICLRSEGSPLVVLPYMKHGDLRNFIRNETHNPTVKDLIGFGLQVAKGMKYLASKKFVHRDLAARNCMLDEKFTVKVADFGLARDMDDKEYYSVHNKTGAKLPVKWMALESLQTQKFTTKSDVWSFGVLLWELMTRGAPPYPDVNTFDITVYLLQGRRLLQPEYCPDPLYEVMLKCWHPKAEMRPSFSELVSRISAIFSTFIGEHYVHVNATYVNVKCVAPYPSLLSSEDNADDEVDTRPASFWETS
T6 sequence (P16234 24-1089 D842V): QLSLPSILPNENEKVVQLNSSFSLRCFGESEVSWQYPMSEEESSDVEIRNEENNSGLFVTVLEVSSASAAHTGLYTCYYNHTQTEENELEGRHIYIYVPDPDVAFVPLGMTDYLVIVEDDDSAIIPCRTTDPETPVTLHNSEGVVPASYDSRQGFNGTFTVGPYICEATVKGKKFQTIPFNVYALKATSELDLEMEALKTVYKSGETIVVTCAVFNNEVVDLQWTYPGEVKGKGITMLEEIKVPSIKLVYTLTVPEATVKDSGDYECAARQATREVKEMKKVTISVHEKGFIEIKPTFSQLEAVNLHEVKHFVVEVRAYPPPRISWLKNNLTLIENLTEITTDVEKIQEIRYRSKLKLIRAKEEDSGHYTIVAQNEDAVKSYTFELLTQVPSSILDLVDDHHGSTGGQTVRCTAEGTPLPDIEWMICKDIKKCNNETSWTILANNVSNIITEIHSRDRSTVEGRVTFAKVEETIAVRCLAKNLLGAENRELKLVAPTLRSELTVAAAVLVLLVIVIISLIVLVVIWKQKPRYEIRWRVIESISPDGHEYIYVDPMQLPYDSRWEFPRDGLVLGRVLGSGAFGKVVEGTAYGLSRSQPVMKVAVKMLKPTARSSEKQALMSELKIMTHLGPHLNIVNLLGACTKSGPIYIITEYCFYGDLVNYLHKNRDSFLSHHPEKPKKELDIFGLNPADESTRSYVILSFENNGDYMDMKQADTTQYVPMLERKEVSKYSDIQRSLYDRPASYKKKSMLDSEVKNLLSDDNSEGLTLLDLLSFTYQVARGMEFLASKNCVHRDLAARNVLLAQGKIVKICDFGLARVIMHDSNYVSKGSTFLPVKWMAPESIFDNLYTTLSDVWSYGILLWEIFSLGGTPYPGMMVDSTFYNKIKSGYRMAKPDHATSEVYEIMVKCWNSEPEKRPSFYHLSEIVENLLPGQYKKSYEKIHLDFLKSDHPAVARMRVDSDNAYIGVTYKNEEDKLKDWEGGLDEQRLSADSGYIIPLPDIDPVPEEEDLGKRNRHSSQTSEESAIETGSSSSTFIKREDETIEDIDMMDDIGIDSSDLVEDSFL

For the compound `COc1cc(OC)c(Cl)c(-c2ccc3c(NC(=O)c4ccc(N5CCNC(C)(C)C5)cc4)n[nH]c3n2)c1Cl` [3D185], the inhibition at 0.01 µM at Met(Y1248D)(h) (10 nM) is -12%; on PAK4(h) (10 nM) it was -8%; on CDK1/cyclinB(h) (10 nM) it was 0%; on Flt3(h) (10 nM), 10%; at BMPR2(h) (10 nM), 5%; at PDGFRα(D842V)(h) (10 nM), -2%. In addition, the inhibition at 0.01 µM at MSSK1(h) (10 nM) stood at 3%. The inhibition at 0.1 µM at Met(Y1248D)(h) (100 nM) is -1%; at PAK4(h) (100 nM), 0%; on CDK1/cyclinB(h) (100 nM) it was 2%; on Flt3(h) (100 nM), 17%; at BMPR2(h) (100 nM), -2%; at PDGFRα(D842V)(h) (100 nM), 5%. Also, the inhibition at 0.1 µM at MSSK1(h) (100 nM) was determined as 11%. The inhibition at 1 µM is 18% on Met(Y1248D)(h) (1000 nM); -2% on PAK4(h) (1000 nM); -11% at CDK1/cyclinB(h) (1000 nM); 27% at Flt3(h) (1000 nM); 4% at BMPR2(h) (1000 nM); 9% on PDGFRα(D842V)(h) (1000 nM). In addition, at MSSK1(h) (1000 nM), the inhibition at 1 µM stood at 18%.

The values are drawn from publication PMC6704710, “Preclinical evaluation of 3D185, a novel potent inhibitor of FGFR1/2/3 and CSF-1R, in FGFR-dependent and macrophage-dominant cancer models” (Journal of Experimental & Clinical Cancer Research : CR, 2019).
